Here are results for 4 compounds from US5428048A, “Aryl-N-hydroxyureas as inhibitors of 5-lipoxygenase and anto-arteriosclerotic agents” (American Home Products Corporation, priority 1993, dated 1995).

One experiment deals with T1, 5-Lipoxygenase (Homo sapiens, UniProt P09917).
T1 construct: endogenous in cells; host or cells: whole blood of male human donors (results per 10^6 neutrophils)
T1 sequence (P09917 1-674): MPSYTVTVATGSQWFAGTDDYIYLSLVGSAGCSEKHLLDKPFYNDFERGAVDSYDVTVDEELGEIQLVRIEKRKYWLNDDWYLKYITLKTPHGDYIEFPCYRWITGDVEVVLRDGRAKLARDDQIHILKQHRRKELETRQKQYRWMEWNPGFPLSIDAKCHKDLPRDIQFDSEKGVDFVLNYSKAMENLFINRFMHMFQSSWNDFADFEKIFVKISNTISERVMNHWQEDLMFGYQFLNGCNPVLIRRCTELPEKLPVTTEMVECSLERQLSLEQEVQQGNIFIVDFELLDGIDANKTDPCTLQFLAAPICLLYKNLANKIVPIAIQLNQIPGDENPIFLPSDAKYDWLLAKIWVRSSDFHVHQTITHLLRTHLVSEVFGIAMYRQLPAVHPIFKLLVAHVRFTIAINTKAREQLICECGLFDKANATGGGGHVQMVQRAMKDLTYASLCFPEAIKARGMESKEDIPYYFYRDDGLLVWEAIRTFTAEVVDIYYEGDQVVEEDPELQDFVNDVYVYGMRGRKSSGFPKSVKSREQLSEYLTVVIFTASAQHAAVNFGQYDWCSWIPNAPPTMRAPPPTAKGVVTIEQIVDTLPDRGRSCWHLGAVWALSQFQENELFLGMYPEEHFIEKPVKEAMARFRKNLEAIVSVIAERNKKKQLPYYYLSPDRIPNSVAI
Put plainly: Inhibition of 5-Lipoxygenase in Human Whole Blood (ionophore A23187-stimulated LTB4). It counts as cell-based. As to the method: 1. Inhibition of 5-Lipoxygenase in Human Whole Blood
Blood is obtained in 50-100 ml quantities from male donors. White blood cell counts and differentials are made. Two ml of blood are placed in a 15 ml polypropylene test tube. Test compounds are solubilized in dimethylsulfoxide and diluted in 1:10 in 10% bovine serum albumin in phosphate buffered saline, pH 7.4 resulting in a final dimethylsulfoxide concentration of 0.1% in the blood. Then, solutions of test compounds are added to the blood in a shaking water bath at 37° C. for 10 minutes prior to the addition of 30 μM calcium ionophore (A23187, Sigma). After ionophore administration, whole blood samples are mixed and incubated for 20 minutes at 37° C. in a shaking water bath. Incubation is terminated by placing samples in an ice bath and immediately adding ethylene glycol-bis-(β-aminoethyl ether)-N, N,N',N'-tetraacetic acid (10 mM). Samples are mixed and centrifuged at 1200×g for 15 minutes at […]. Preparation of samples for evaluation by RIA or ELISA is carded out by the following protocol. Plasma is removed from sample tubes, placed in 15 ml polypropylene test tubes containing 8 ml methanol, and then vortexed to precipitate protein. Samples are stored at -70° C. overnight. The next day, samples are centrifuged at 200×g for 15 minutes at 4° C. to pellet the precipitate. Samples are dried in a Savant SpeedVac Concentrator, Model SVC 200H, reconstituted to original volume with ice cold RIA or ELISA buffer, and stored at -70° C. until assayed. The assay for eicosanoids (LTB4, TxB2, and PGE2) is performed as described by the manufacturer of the [^3 H]-RIA kit or ELISA kit (LTB4 -Amersham, TxB2 and PGE2 - Caymen Chemical).
The total eicosanoid level in 2 ml of blood is calculated and reported as ng/10^6 neutrophils. Significance is determined by a one-way analysis of variance with least significant difference (LSD) comparisons to control (p≤0.05) and IC50 's (μM) are determined by regression analysis (Finney, 1978). Drug effects are expressed as percent change from control values.

The next experiment relates to LTB4 Synthesis. Put plainly: Reverse Passive Arthus Reaction (pleurisy, LTB4 in pleural exudate). It counts as in vivo, male Lewis rats. As to the method: 3. Reverse Passive Arthus Reaction
A reverse passive Arthus reaction is induced in the pleural cavity of male Lewis rats (150°-200 g; fasted overnight prior to use) by the intravenous administration of bovine serum albumin (BSA; 4 mg/0.2 ml) followed 30 minutes later by the injection of rabbit anti-BSA (1 mg/0.2 ml; lyophilized IgG fraction; Organon Teknika, West Chester, Pa.) into the right pleural space under halothane anesthesia. Drugs or vehicle (0.5% Tween-80) control are administered orally in a volume of 1 ml/100 g body weight at 1 hour prior to the anti-BSA. Animals are sacrificed at either the time of peak eicosanoid production (i.e. 5 minutes after anti-BSA for immunoreactive TxB2, 10 minutes for immunoreactive LTB4, 20 minutes for immunoreactive LTC4) or at the time of peak neutrophil infiltration (4 hours after anti-BSA) by CO2 inhalation. The pleural cavity is then exposed, the fluid exudate removed by gentle vacuum aspiration and the volume of exudate is recorded. For the determination of cellular infiltration, the pleural cavity is rinsed with 3 ml of 0.1% EDTA in sterile saline, and the recovered wash is pooled with the exudate. Cell number is determined on a model ZBI Coulter counter. For determination of eicosanoid production, undiluted pleural exudate is microfuged and the supernatant is extracted with ethanol (8-10 times volume). Extracts are either stored at -20° C., or are evaporated to dryness under a stream of N2 and reconstituted in radioimmunoassay (RIA) buffer.
Eicosanoids are quantitated by RIA according to the procedure specified by the RIA kit manufacturer (Advanced Magnetics, Cambridge, MA). Briefly, 100 μl of ^3 H-labeled eicosanoid and 100 μl of specific antibody ,are sequentially added to 100 μl of extracted pleural exudate in BGG-phosphate buffer which contains 0.01M phosphate, 0.1% bovine gamma globulin and 0.1% sodium azide at pH 7.0. Antibody-bound eicosanoid is separated from unbound eicosanoid by the addition of 750 μl of dextran (0.4%)-coated charcoal (Norit A) containing 0.1% sodium azide. The mixture is centrifuged at 2000 RPM at 5° C. for 15 minutes to pellet the charcoal and adsorbed unbound eicosanoid. Antibody-bound labeled eicosanoid is quantitated by counting in a liquid scintillation counter, and is correlated to concentration by a standard curve.

`Cc1oc(-c2ccccc2)nc1CCOc1ccc(CN(O)C(N)=O)cc1` [Example 1] showed an inhibition at 1 µM at 5-Lipoxygenase of 55%. In addition, the “% Inhibition LTB4 Synthesis” value in the experiment with LTB4 Synthesis (25 mg/kg p.o.) came out at 35%.
Compound `Cc1oc(-c2ccccc2)nc1CCOc1ccc(C(C)N(O)C(N)=O)cc1` (stereo not shown) [Example 4] showed an inhibition at 10 µM on 5-Lipoxygenase (10 μM) of 60%.
The compound `Cc1oc(-c2ccc(C(F)(F)F)cc2)nc1CCOc1ccc(CN(O)C(N)=O)cc1` [Example 13, 1-Hydroxy-1-[4-[2-[5-methyl-2(4-trifluoromethyl-phenyl)-oxazol-4-yl]-ethoxy]benzyl]-urea] had an inhibition at 1 µM at 5-Lipoxygenase of 47%. Besides, the “% Inhibition LTB4 Synthesis” value in the experiment with LTB4 Synthesis (10 mg/kg p.o.) amounted to 91%.
As to `NC(=O)N(O)Cc1ccc(OCCc2noc(-c3ccccc3)n2)cc1` [Example 21, 1-hydroxy-1-[4-[2-(5-phenyl-[1,2,4]-oxadiazol-3-yl)-ethoxy]-benzyl]-urea], testing at 1 µM on 5-Lipoxygenase gave an inhibition of 70%. Moreover, the “% Inhibition LTB4 Synthesis” value in the experiment on LTB4 Synthesis (25 mg/kg p.o.) was found to be 19%.

As a reminder, the inhibition is the drop in the measured response relative to a control, in per cent. A higher inhibition goes with a strong effect.
